Assay results: patent US20100087406A1, “INDUCTION OF INNATE IMMUNITY BY VITAMIN D3 AND ITS ANALOGS” (CEDARS-SINAI MEDICAL CENTER, priority 2004, published 2010)
“Also recorded” adds a separate entry of the source. Read-outs that look alike come from different tables or passages of the source.

Legend:
CAMP [1] = assay: Induction of CAMP mRNA expression in U937 cells (QRT-PCR, RT-PCR, Northern blot); format: cell-based, human; conditions: for induction of CAMP (hCAP18) mRNA expression by Vitamin D3 analogs: U937, 1×10^−7 M, 12 and 24 hours
CAMP [2] = conditions: cultured keratinocytes or composite keratinocyte grafts; cited from earlier work
CAMP [3] = conditions: primary human keratinocytes; cited from earlier work
hCAP18 = conditions: colon epithelial cell lines; cited from earlier work
CAMP [4] = assay: Induction of CAMP mRNA expression in HL60 cells (Northern blot)
CAMP [5] = assay: Induction of CAMP mRNA expression in NB4 cells (Northern blot)
CRAMP [6] = assay: CRAMP expression in bone marrow of treated BNX mice (Northern blot); conditions: intraperitoneal, 0.05 μg/mouse every two days for 6 weeks
LTF (lactoferrin) = assay: Induction of secondary granule gene LTF in U937 cells (RT-PCR); conditions: U937, 1×10^−7 M, 24 h
CD11b [7] = assay: Differentiation marker CD11b mRNA in U937 cells (Northern blot); conditions: for macrophage-like differentiation (induction of CD11b): U937, 1,25[OH]2D3 1×10^−7 M or TPA 5 ng/ml, 1, 3 or 5 days
Description: Total RNA at each time point was isolated and electrophoresed, then transferred to a charged membrane for Northern analysis.
Total RNA was extracted and analyzed by Northern blot.

CAMP [8] = assay: Induction of CAMP mRNA in keratinocyte cell line HaCat (QRT-PCR); format: cell-based, human
Description: The X-axis represents (CAMP(ng)/18S(ng)), +/−SD.

HNP3 (α-defensin) = assay: Induction of primary granule gene HNP3 in U937 cells (RT-PCR); conditions: U937, 1×10^−7 M, 24 h
CRAMP [9] = assay: CRAMP in cultured bone marrow cells of C/EBPε-deficient or wild type mice (QRT-PCR); format: cell-based
Protocol: Primers against murine CAMP/CRAMP (forward, SEQ ID NO.: 7 and reverse, SEQ ID NO.: 8) (Table 3) were used at 200 nM per reaction.
The relative fold change between samples was determined using data normalized for 18S expression. Samples were analyzed in triplicate.

CD11b [10] = assay: Differentiation marker CD11b mRNA in HL60 cells (Northern blot); format: cell-based, human; conditions: HL-60; 1,25[OH]2D3 1×10^−7 M or TPA 5 ng/ml; 1, 3 or 5 days
[11] = U937, initial screen, 24 h, QRT-PCR and Northern blot

Question: With `C[C@]12CCC(=O)C[C@@H]1CC[C@@H]1[C@@H]2CC[C@]2(C)[C@@H](O)CC[C@@H]12` [DHT, dihydrotestosterone] as the molecule, how does the “induction of CAMP expression” value (CAMP [1]) read?
Answer: The value was “only 1,25(OH)2D3 induced CAMP expression significantly”.

Question: Which “induction of CAMP expression” value (CAMP [2]) does the source give for IL-1β: proinflammatory cytokine here?
Answer: Its value is “induced CAMP expression”.

Question: With “insulin-like growth factor (IGF)-1: growth factor that is important in wound healing” as the molecule, how does the “induction of CAMP mRNA and protein” value (CAMP [3]) read?
Answer: Its value is “induce both the CAMP mRNA and protein”.

Question: For IL-6: cytokine, which “induction of CAMP expression” value (CAMP [1]; [11]) is on record?
Answer: The value was “only 1,25(OH)2D3 induced CAMP expression significantly”.

Question: And the “induction of hCAP18 expression” value (hCAP18)?
Answer: The value was “not by pro-inflammatory mediators”.

Question: And the “induction of CAMP expression” value (CAMP [2])?
Answer: Its value is “did not”.

Question: Which “induction of CAMP expression” value (CAMP [4]; HL60, 5×10^−7 M, 1-5 days) does the source give for `CC1=C(/C=C/C(C)=C/C=C/C(C)=C/C(=O)O)C(C)(C)CCC1` [ATRA, all trans retinoic acid] here?
Answer: Its value is “No induction was observed”.

Question: What about the “induction of CAMP expression” value (CAMP [1]; U937, 5×10^−7 M, 1-5 days) of the same molecule?
Answer: Its value is “No induction was observed”.

Question: And the “induction of CAMP expression” value (CAMP [1]; [11])?
Answer: Its value is “only 1,25(OH)2D3 induced CAMP expression significantly”.

Question: And the “induction of CAMP expression” value (CAMP [5]; NB4, 5×10^−7 M, 1-5 days)?
Answer: Its value is “No induction was observed”.

Question: For `C=C1/C(=C\C=C2/CCC[C@]3(C)[C@@H]([C@H](C)/C=C/C[C@@](C)(O)CO)CC[C@@H]23)C[C@@H](O)C[C@@H]1O` [compound I, 1,25R,26-(OH)3-22-ene-D3], which “induction of CAMP (hCAP18) mRNA expression by Vitamin D3 analogs” value (from here on “induction of CAMP … by Vitamin D3 analogs”) (CAMP [1]; Northern blot) is on record?
Answer: Its value is “strongly induced CAMP gene expression; also recorded: Induction of hCAP18 mRNA expression was observed; also recorded: Induction of CAMP mRNA expression was observed”.

Question: And the “CRAMP expression in bone marrow compared with a vehicle-treated mouse” value (CRAMP [6])?
Answer: Its value is “did not significantly alter CRAMP expression”.

Question: For `CCCCCCCCCCCCCC(=O)O[C@@H]1[C@@H](C)[C@@]2(O)[C@@H](C=C(CO)C[C@]3(O)C(=O)C(C)=C[C@@H]23)[C@@H]2C(C)(C)[C@]12OC(C)=O` [PMA], which “induction of hCAP18 expression” value (hCAP18) is on record?
Answer: The value was “not by pro-inflammatory mediators”.

Question: With `C=C1/C(=C\C=C2/CCC[C@]3(C)[C@@H]([C@@H](C)OCCCC(O)(CC)CC)CC[C@@H]23)C[C@@H](O)C[C@@H]1O` [KH1060, 20-epi-22oxa-24a,26a,27a-tri-homo-1,25(OH)2D3] as the molecule, how does the “induction of CAMP … by Vitamin D3 analogs” value (CAMP [1]; Northern blot) read?
Answer: Its value is “strongly induced CAMP gene expression; also recorded: Induction of hCAP18 mRNA expression was observed; also recorded: Induction of CAMP mRNA expression was observed”.

Question: For `C=C1/C(=C\C=C2/CCC[C@]3(C)[C@@H]([C@H](C)/C=C/C=C/C(O)(CC)CC)CC[C@@H]23)C[C@@H](O)C[C@@H]1O` [EB1089, 1,25-dihydroxy-22,24-diene, 24,26,27-trihomo], which “induction of CAMP … by Vitamin D3 analogs” value (CAMP [1]; Northern blot) is on record?
Answer: The value was “strongly induced CAMP gene expression”.

Question: And the “induction of CAMP … by Vitamin D3 analogs” value (CAMP [1]; Northern blot, listed as EB 1089)?
Answer: Its value is “Induction of hCAP18 mRNA expression was observed; also recorded: Induction of CAMP mRNA expression was observed”.

Question: With IL-8: cytokine as the molecule, how does the “induction of CAMP expression” value (CAMP [2]) read?
Answer: Its value is “did not”.

Question: What does the source list for INFγ: inflammatory factor?
Answer: induction of CAMP expression (CAMP [1]; [11]): only 1,25(OH)2D3 induced CAMP expression significantly; induction of hCAP18 expression (hCAP18): not by pro-inflammatory mediators; induction of CAMP expression (CAMP [2]): did not

Question: Which “induction of CAMP expression” value (CAMP [1]; [11]) does the source give for TNFα here?
Answer: The value was “only 1,25(OH)2D3 induced CAMP expression significantly”.

Question: What about the “induction of hCAP18 expression” value (hCAP18) of the same molecule?
Answer: The value was “not by pro-inflammatory mediators”.

Question: What about the “induction of CAMP expression” value (CAMP [2]) of the same molecule?
Answer: Its value is “did not”.

Question: For `C=C1/C(=C\C=C2/CCC[C@]3(C)[C@@H]([C@H](C)CCCC(C)(C)O)CC[C@@H]23)C[C@@H](O)C[C@@H]1O` [1,25(OH)2D3, 1,25-dihydroxyvitamin D3], which “induction of LTF” value (LTF (lactoferrin)) is on record?
Answer: Its value is “No induction of these genes was observed”.

Question: What about the “time of induction of the differentiation marker CD11b” value (CD11b [7]; U937, 1×10^−7 M, time course 1-24 hours) of the same molecule?
Answer: The value was 12 h.

Question: And the “macrophage-like differentiation (induction of CD11b)” value (“macrophage-like differentiation” below) (CD11b [7])?
Answer: Its value is “promoted macrophage-like differentiation”.

Question: And the “induction of CAMP mRNA compared with myeloid cells” value (CAMP [8])?
Answer: Its value is “not as robust as that observed in the myeloid cells; also recorded: less striking”.

Question: And the “induction of CAMP mRNA” value (CAMP [8]; 1×10^−7 M, 24 hours, QRT-PCR)?
Answer: The value was “Induction of CAMP mRNA was observed”.

Question: What about the “induction of HNP3” value (HNP3 (α-defensin)) of the same molecule?
Answer: The value was “No induction of these genes was observed”.

Question: What about the “induction of CRAMP” value (CRAMP [9]; C/EBPε-deficient or wild type bone marrow cells cultured in vitro, 24 h) of the same molecule?
Answer: Its value is “CRAMP induction was not observed”.

Question: What about the “decrease of CRAMP” value (CRAMP [9]; bone marrow cells, 24 h post-treatment (FIG. 14B)) of the same molecule?
Answer: The value was “approximately 2 fold”.

Question: What about the “induction of CAMP expression” value (CAMP [5]; NB4, 1×10^−6 M to 1×10^−9 M, 24 h, Northern blot (FIG. 3)) of the same molecule?
Answer: Its value is “induction was observed; also recorded: induced expression of CAMP was observed”.

Question: And the “induction of CAMP expression” value (CAMP [5]; NB4, 1×10^−6 M to 1×10^−9 M, 24 h, Northern blot (FIG. 3), listed as Vitamin D3)?
Answer: Its value is “Moderate induction”.

Question: For `CCCCCCCCCCCCCC(=O)O[C@@H]1[C@@H](C)[C@@]2(O)[C@@H](C=C(CO)C[C@]3(O)C(=O)C(C)=C[C@@H]23)[C@@H]2C(C)(C)[C@]12OC(C)=O` [TPA], which “induction of CAMP mRNA” value (CAMP [4]; HL-60, 1,25[OH]2D3 1×10^−7 M or TPA 5 ng/ml, 1, 3 or 5 days, Northern blot) is on record?
Answer: Its value is “not TPA”.

Question: What about the “macrophage-like differentiation” value (CD11b [7]) of the same molecule?
Answer: The value was “promoted macrophage-like differentiation”.

Question: And the “induction of CAMP expression” value (CAMP [1]; [11])?
Answer: The value was “only 1,25(OH)2D3 induced CAMP expression significantly”.

Question: And the “induction of CAMP mRNA” value (CAMP [1]; U937, 1,25[OH]2D3 1×10^−7 M or TPA 5 ng/ml, 1, 3 or 5 days, Northern blot)?
Answer: Its value is “not TPA”.

Question: What about the “macrophage-like differentiation” value (CD11b [10]) of the same molecule?
Answer: The value was “promoted macrophage-like differentiation”.

Question: Which “induction of CAMP gene expression by CHX alone” value (CAMP [1]; U937, data not shown) does the source give for `C[C@@H]1C[C@@H]([C@H](O)CC2CC(=O)NC(=O)C2)C(=O)[C@@H](C)C1` [CHX, cyclohexamide] here?
Answer: Its value is “did not induce CAMP gene expression”.

Question: For GM-CSF: growth factor, which “induction of CAMP expression” value (CAMP [1]; [11]) is on record?
Answer: The value was “only 1,25(OH)2D3 induced CAMP expression significantly”.

B1: IL-1α: pro-inflammatory mediator (protein, UniProt P01583 113-271, looked up)
Interleukin-1 alpha: SAPFSFLSNVKYNFMRIIKYEFILNDALNQSIIRANDQYLTAAALHNLDEAVKFDMGAYKSSKDDAKITVILRISKTQLYVTAQDEDQPVLLKEMPEIPKTITGSETNLLFFWETHGTKNYFTSVAHPNLFIATKQDYWVCLAGGPPSITDFQILENQA
Question: Which “induction of hCAP18 expression” value (hCAP18) does the source give for B1 here?
Answer: The value was “not by pro-inflammatory mediators”.

B2: G-CSF: growth factor (protein, UniProt P09919 31-207, looked up)
Granulocyte …: TPLGPASSLPQSFLLKCLEQVRKIQGDGAALQEKLVSECATYKLCHPEELVLLGHSLGIPWAPLSSCPSQALQLAGCLSQLHSGLFLYQGLLQALEGISPELGPTLDTLQLDVADFATTIWQQMEELGMAPALQPTQGAMPAFASAFQRRAGGVLVASHLQSFLEVSYRVLRHLAQP
Question: For B2, which “induction of CAMP expression” value (CAMP [1]; [11]) is on record?
Answer: The value was “only 1,25(OH)2D3 induced CAMP expression significantly”.

B3: IL-10: cytokine (protein, UniProt P22301 19-178, looked up)
Interleukin-10: SPGQGTQSENSCTHFPGNLPNMLRDLRDAFSRVKTFFQMKDQLDNLLLKESLLEDFKGYLGCQALSEMIQFYLEEVMPQAENQDPDIKAHVNSLGENLKTLRLRLRRCHRFLPCENKSKAVEQVKNAFNKLQEKGIYKAMSEFDIFINYIEAYMTMKIRN
Question: For B3, which “induction of CAMP expression” value (CAMP [2]) is on record?
Answer: The value was “did not”.

B4: I1-4: cytokine, probably IL-4 (protein, UniProt P05112 25-153, looked up)
Interleukin-4: HKCDITLQEIIKTLNSLTEQKTLCTELTVTDIFAASKNTTEKETFCRAATVLRQFYSHHEKDTRCLGATAQQFHRHKQLIRFLKRLDRNLWGLAGLNSCPVKEANQSTLENFLERLKTIMREKYSKCSS
Question: For B4, which “induction of CAMP expression” value (CAMP [2]) is on record?
Answer: Its value is “did not”.
